# From patent EP3884941A1, “INFLAMMASOME INHIBITORS AND USE THEREOF” (CENTRO DE INVESTIGACION PRINCIPE FELIPE, priority 2020, dated 2021)
# How the values were obtained:
# human NLRP1 inflammasome = assay: NLRP1 inflammasome activation, LPS plus MDP, THP-1 cells; type: cell-based
# Experimental: The materials and methods employed in these experiments are now described. The molecules were evaluated in the THP-1, or PMA-differentiated THP-1 cells (50 nM PMA for 24h) as described in Example 3. To stimulate NLRP1 inflammasome, cells were either mock-treated or primed with compounds at the indicated concentrations for 30 min, followed by treatment with 100 ng/mL LPS (Sigma) and 50 µg/ml MDP (Sigma) for 6 h at 37°C. In the case of NLRC4 inflammasome induction, cells were pretreated with the compounds for 30 min and then cells were stimulated for 3 h with Salmonella Typhimurium (MOI 5). To induce AIM2 inflammasome, cells were pretreated in the same conditions as before and transfected with poly(dA:dT) (200 µg/ml; Sigma) overnight using Lipofectamine 2000 (Invitrogen). Both IL-1β secretion and the release of IL-18 were monitored as previously described in Example 3.
# Apoptosome = molecular target: T1, Apoptosome (Homo sapiens, UniProt O14727); assay: Apoptosome activity assay; type: biochemical; conditions: reconstituted in vitro; MM01 5 µM (Figure 2C)
# T1 sequence (O14727 1-1248): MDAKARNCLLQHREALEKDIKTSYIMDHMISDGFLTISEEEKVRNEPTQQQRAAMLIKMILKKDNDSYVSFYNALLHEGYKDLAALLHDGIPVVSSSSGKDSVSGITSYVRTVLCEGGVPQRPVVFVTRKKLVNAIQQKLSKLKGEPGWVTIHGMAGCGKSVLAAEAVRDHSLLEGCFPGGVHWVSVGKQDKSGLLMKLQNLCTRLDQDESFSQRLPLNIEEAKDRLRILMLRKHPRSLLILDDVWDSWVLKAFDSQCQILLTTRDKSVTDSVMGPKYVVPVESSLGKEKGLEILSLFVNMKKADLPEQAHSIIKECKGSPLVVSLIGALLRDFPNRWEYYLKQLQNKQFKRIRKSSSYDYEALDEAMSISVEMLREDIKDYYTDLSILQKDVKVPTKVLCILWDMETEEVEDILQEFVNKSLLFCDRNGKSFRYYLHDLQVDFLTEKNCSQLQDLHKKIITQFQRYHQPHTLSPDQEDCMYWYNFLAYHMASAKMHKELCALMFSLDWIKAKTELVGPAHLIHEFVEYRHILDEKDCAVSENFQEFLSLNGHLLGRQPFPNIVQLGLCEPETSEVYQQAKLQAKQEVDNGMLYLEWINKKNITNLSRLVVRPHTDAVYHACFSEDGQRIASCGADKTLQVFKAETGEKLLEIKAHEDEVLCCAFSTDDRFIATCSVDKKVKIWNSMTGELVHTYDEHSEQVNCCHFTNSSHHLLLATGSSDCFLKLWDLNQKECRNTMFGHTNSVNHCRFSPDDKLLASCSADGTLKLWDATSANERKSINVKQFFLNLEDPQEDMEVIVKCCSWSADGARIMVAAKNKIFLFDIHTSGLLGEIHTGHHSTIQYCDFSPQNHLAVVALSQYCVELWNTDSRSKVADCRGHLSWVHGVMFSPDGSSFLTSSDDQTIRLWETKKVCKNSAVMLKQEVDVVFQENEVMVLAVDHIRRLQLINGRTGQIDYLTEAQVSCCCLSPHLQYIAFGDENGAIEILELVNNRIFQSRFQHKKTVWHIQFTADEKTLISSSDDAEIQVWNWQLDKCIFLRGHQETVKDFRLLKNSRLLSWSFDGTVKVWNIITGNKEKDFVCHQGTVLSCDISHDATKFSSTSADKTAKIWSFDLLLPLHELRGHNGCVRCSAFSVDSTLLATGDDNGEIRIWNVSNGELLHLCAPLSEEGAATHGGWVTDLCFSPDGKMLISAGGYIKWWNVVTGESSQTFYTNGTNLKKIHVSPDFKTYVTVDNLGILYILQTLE
# Experimental: Apoptosome was reconstituted by incubating rApaf-1 (100 nM) with vehicle (DMSO) or compounds in assay buffer (20 mM HEPES, 10 mMKCI, 1.5 mM MgCI2, 1 mM EDTA, 1 mM EGTA, 1 mM DTT, 0.1 mM PMSF) at 30°C for 30 min. Next, 100 µM dATP and 100 nM Cytc were added and incubated for additional 40 min. Then, caspase-9 (100 nM) was added, and activity was monitored by the Ac-LEHD-afc substrate (50 µM) using a Victor 2 spectrofluorimeter.
# NLRP3 inflammasome = assay: murine peritoneal macrophages cellular assay, LPS plus ATP; type: cell-based, Mice (BALB/c)
# Experimental: Mice (BALB/c) were euthanized, and 5 ml of cold medium was injected (20G needle) into the peritoneal region. The aspirated fluid from peritoneum was centrifuged for 10 min at 400 × g and the cell pellet resuspended in DMEM/F12-10 (1 ml). 40000 cells/well were plated in 24-well plates. Cells were allowed to adhere to the plate by culturing them 2 h at 37°C and then, non-adherent cells were removed by gently washing three times with warm PBS. Macrophages were primed for 4 h with 100 ng/ml pure LPS (Alexis Biochemicals Corporation), in serum-free IMDM medium followed by 30 min with 5 mM ATP. Supernatants were harvested and clarified by centrifugation at 1500 rpm at RT and cytokine, and caspase-1 activation analysis was performed as previously described in Example 3.
# [1] = tested on: NLRP3 activation in MSU-induced peritonitis; assay: MSU-induced peritonitis mouse model; type: in vivo, C57BL/6 mice; conditions: 10 mg/kg i.p. 30 min before MSU 2 mg/mouse i.p.
# Experimental: We next evaluated the efficacy of MM01 in a murine MSU-induced peritonitis model. (Spalinger MR et al. Bio-protocol 2018; 8(5): e2754). Mono-sodium urate (MSU; InvivoGen) crystals are potent activators of the NLRP3 receptor. Upon activation, NLRP3 induces the formation of inflammasome complex, which lead to the production and release of mature IL-1β. In the early phase of peritonitis, the number of infiltrating neutrophils correlates with the production of mature IL-1β. MM01 was injected intraperitoneal 30 min before MSU crystals i.p. injection.
# In vivo model was performed according to the protocol approved by the Institutional Animal Ethical Committee of CIPF. C57BL/6 mice were injected i.p. with 10 mg/kg MM01 or vehicle 30 min before i.p. injection of MSU (2 mg MSU crystals in 200 µl sterile PBS). After 6 h, mice were sacrificed, and peritoneal lavage with 5 ml of PBS was performed. Cytokine IL-1β secretion was determined by ELISA (#DY401 R&D Systems) and neutrophil content measured in ACVLAB Laboratorio Valencia.
structure (smiles),measurement,setting,value
C=CCN1C(=O)/C(=C2/C(=O)Nc3ccccc32)SC1=S [MM01],IL-18 release,"human NLRP1 inflammasome; THP-1, LPS 100 ng/ml + MDP 50 µg/ml",avoided
same,IL-1β release,"human NLRP1 inflammasome; THP-1, LPS 100 ng/ml + MDP 50 µg/ml, MM01 1, 2.5 or 5 µM",avoided
same,procaspase-1 activation,"human NLRP1 inflammasome; THP-1, LPS 100 ng/ml + MDP 50 µg/ml, pretreatment",avoided
same,pyroptotic cell death,"human NLRP1 inflammasome; THP-1, LPS + MDP, LDH release",protected
same,inhibition of the apoptosome,Apoptosome,No inhibition
same,TNF-α release,NLRP3 inflammasome,not correlated with a significant reduction
same,release of LDH,NLRP3 inflammasome,decreased
same,IL-1β release,NLRP3 inflammasome; at 5 and 10 µM of MM01,significant inhibition
same,IL-6 release,NLRP3 inflammasome; at 5 and 10 µM of MM01,significant inhibition
same,neutrophil recruitment,[1]; peritoneal cavity after 6 h,efficiently suppressed
same,MSU injection-induced IL-1β production,"[1]; peritoneal lavage after 6 h, ELISA",efficiently suppressed
